From patent EP4644375A1, “SUBSTITUTED HYDROQUINOLINES FOR THE TREATMENT OF GLIOBLASTOMA MULTIFORME” (Molius Saglik Teknolojileri Anonim Sirketi, priority 2024, dated 2025) come the findings set out here.

Each structure is given as a SMILES string.

The subject of one test is U87-MG human glioma cell. Nature of the test: Cell proliferation analysis (MTT). In kind it is cell-based. Conditions: Homo sapiens, U-87 MG, 48 h, 10 µM, two days, MTT.
Test [1] relates to U138-MG human glioma cell. In words: Cell proliferation analysis (MTT). In kind it is cell-based. As to conditions: Homo sapiens, 48 h, 10 µM, two days, MTT.

As a reminder, the inhibition is the change of the read-out against control, counted positive when it falls. For the molecule `O=C(COc1ccc2c(c1)CCC(=O)N2)N/N=C/c1cccc(Oc2ccc(Cl)cc2)c1` [TR-G138, (E)-N'-(3-(4-chlorophenoxy)benzylidene)-2-((2-oxo-1,2,3,4-tetrahydroquinolin-6-yl)oxy)acetohydrazide], the inhibition at 10 µM came to 50% in the test on U87-MG human glioma cell and 35% in test [1].

For the molecule `O=C1CCc2cc(OC(=O)c3cccc(F)c3)ccc2N1` [TR-G139, 2-oxo-1,2,3,4-tetrahydroquinolin-6-yl 3-flurobenzoate], in the test on U87-MG human glioma cell, the activity at 10 µM turned out to be 71% and the inhibition at 10 µM was determined as 29%. Besides, in test [1], the activity at 10 µM was determined as 83% and the inhibition at 10 µM was 17%.

For the molecule `O=C1CCc2cc(OC(=O)Nc3ccc(F)cc3)ccc2N1` [TR-G140, 2-oxo-1,2,3,4-tetrahydroquinolin-6-yl (4-fluorophenyl)carbamate], in the test with U87-MG human glioma cell, the activity at 10 µM is 80% and the inhibition at 10 µM stood at 20%. In test [1], the activity at 10 µM is 91% and the inhibition at 10 µM came out at 9%.

For `O=C(COc1ccc2c(c1)CCC(=O)N2)N/N=C/c1cccc2ccccc12` [TR-G141, (E)-N'-(naphthalen-1-ylmethylene)-2-((2-oxo-1,2,3,4-tetrahydroquinolin-6-yl)oxy)acetohydrazide], in the test on U87-MG human glioma cell, the activity at 10 µM is 53% and the inhibition at 10 µM turned out to be 47%. Besides, in test [1], the activity at 10 µM is 65% and the inhibition at 10 µM came out at 35%.

As to `O=C1CCc2cc(OCc3cc(-c4ccc(F)cc4)no3)ccc2N1` [TR-G142, 6-((3-(4-fluorophenyl)isoxazol-5-yl)methoxy)-3,4-dihydroquinolin-2(1H)-one], in the test on U87-MG human glioma cell, the activity at 10 µM was determined as 55% and the inhibition at 10 µM came out at 46%. Further, in test [1], the activity at 10 µM stood at 70% and the inhibition at 10 µM worked out at 30%.

With `C=CCCCOc1ccc2c(c1)CCC(=O)N2` [TR-G144, 6-(pent-4-en-i-yloxy)-3,4-dihydroquinolin-2(1H)-one], in the test on U87-MG human glioma cell, the activity at 10 µM worked out at 61% and the inhibition at 10 µM came out at 39%. For the same molecule, in test [1], the activity at 10 µM came to 70% and the inhibition at 10 µM came to 30%.

Regarding `O=C(COc1ccc2c(c1)CCC(=O)N2)N/N=C/c1ccc(-c2ccccc2)cc1` [TR-G145, (E)-N'-([1,1'-biphenyl}-4-ylmethylene)-2-((2-oxo-1,2,3,4-tetrahydroquinolin-6-yl)oxy)acetohydrazide], in the test with U87-MG human glioma cell, the activity at 10 µM amounted to 49% and the inhibition at 10 µM was determined as 51%. In test [1], the activity at 10 µM is 59% and the inhibition at 10 µM was 41%.

`O=C(COc1ccc2c(c1)CCC(=O)N2)N/N=C/c1ccc(-c2ccc(Cl)cc2)cc1` [TR-G146, (E)-N'-((4'-chloro-[1,1'-biphenyl)-4-yl)methylene)-2-((2-oxo-1,2,3,4-tetrahydroquinolin-6-yl)oxy)acetohydrazide]: the inhibition at 10 µM in the test with U87-MG human glioma cell came to 37%; in test [1] it was 21%.

`CC(=O)CCn1cc(COc2ccc3c(c2)CCC(=O)N3)nn1` [TR-G147, 6-((1-(3-oxobutyl)-1H-1,2,3-triazol-4-yl)methoxy)-3,4-dihydroquinolin-2(1H)-one]: in the test with U87-MG human glioma cell, the activity at 10 µM turned out to be 89% and the inhibition at 10 µM came to 11%. Besides, in test [1], the activity at 10 µM was found to be 122% and the inhibition at 10 µM was -22%.

Regarding `O=C1CCc2cc(OCC3CC(c4c(F)cccc4Cl)=NO3)ccc2N1` (stereo not drawn) [TR-G150, 6-((3-(2-chloro-6-fluorophenyl)-4,5-dihydroisoxazol-5-yl)methoxy)-3,4-dihydroquinolm-2(1H)-one], in the test with U87-MG human glioma cell, the activity at 10 µM was 97% and the inhibition at 10 µM amounted to 3%. In addition, in test [1], the activity at 10 µM is 79% and the inhibition at 10 µM was determined as 21%.
